Results as given in the supplement of paper PMC10307832.

Columns and labels:
[1] = compound: C1=CC2=NC=CN=C2C=C1/C=C/3\C(=O)NC(=O)S3 + CC(=O)Nc1cccc(-n2c(=O)n(C3CC3)c(=O)c3c(Nc4ccc(I)cc4F)n(C)c(=O)c(C)c32)c1 [Trametinib] (partner 0.02 µM); assay: relative viability (nuclei count vs DMSO), 5 days (fraction); higher = more cells survive
In short: (§1)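 Dosing by pin tool came one day after lung cancer cell lines were seeded in 1536-well plates, using either one drug or a fixed anchor-drug dose plus five library-drug doses (not always all listed) in √10 steps. After 5 days, nuclei were counted on 4× images. Relative viability is treated-well nuclei count divided by vehicle-well nuclei count, and values are medians of duplicate plates.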

BGJ398 + Dasatinib = compound: CCN1CCN(c2ccc(Nc3cc(N(C)C(=O)Nc4c(Cl)c(OC)cc(OC)c4Cl)ncn3)cc2)CC1 [BGJ398] + Cc1nc(Nc2ncc(C(=O)Nc3c(C)cccc3Cl)s2)cc(N2CCN(CCO)CC2)n1 [Dasatinib] (partner 0.075 µM); assay: as above
In short: as §1

Row | Cell Line | relative viability ([1]; first compound 0.02 µM) | relative viability ([1]; first compound 0.06325 µM) | relative viability ([1]; first compound 0.2 µM) | relative viability ([1]; first compound 0.6325 µM) | relative viability ([1]; first compound 2 µM) | relative viability (BGJ398 + Dasatinib; first compound 0.01 µM) | relative viability (BGJ398 + Dasatinib; first compound 0.03162 µM) | relative viability (BGJ398 + Dasatinib; first compound 0.1 µM) | relative viability (BGJ398 + Dasatinib; first compound 0.3162 µM) | relative viability (BGJ398 + Dasatinib; first compound 1 µM)
1 | SK-LU-1 | 0.506 | 0.417 | 0.558 | 0.542 | 0.407 | 0.173 | 0.19 | 0.142 | 0.153 | 0.13
2 | ChaGo-K-1 | 0.9 | 0.785 | 0.888 | 0.887 | 0.872 | 0.598 | 0.582 | 0.613 | 0.545 | 0.627
3 | COR-L 105 | 0.422 | 0.549 | 0.451 | 0.408 | 0.423 | 0.275 | 0.279 | 0.371 | 0.307 | 0.276
4 | NCI-H1975 | 0.273 | 0.361 | 0.355 | 0.33 | 0.241 | 0.359 | 0.449 | 0.378 | 0.34 | 0.316
5 | NCI-H1993 | 0.516 | 0.527 | 0.504 | 0.452 | 0.506 | 0.694 | 0.595 | 0.611 | 0.641 | 0.578
6 | RERF-LC-KJ | 0.815 | 0.878 | 0.88 | 0.738 | 0.62 | 0.655 | 0.933 | 0.753 | 0.858 | 0.819
7 | NCI-H23 | 0.346 | 0.489 | 0.361 | 0.394 | 0.223 | 0.776 | 0.834 | 0.844 | 0.792 | 0.748
8 | HCC-366 | 0.307 | – | 0.39 | 0.311 | 0.309 | 0.626 | 0.681 | 0.793 | 0.6 | 0.558
9 | EMC-BAC-2 | 0.92 | 0.944 | 0.892 | 0.879 | 0.713 | 0.273 | 0.337 | 0.355 | 0.36 | 0.314
10 | NCI-H2405 | 0.622 | 0.765 | 0.648 | 0.623 | 0.399 | 0.213 | 0.236 | 0.233 | 0.225 | 0.192
11 | NCI-H358 | 0.145 | 0.122 | 0.139 | 0.126 | 0.11 | 0.145 | 0.154 | 0.135 | 0.169 | 0.205
12 | NCI-H1944 | 0.394 | 0.384 | 0.395 | 0.38 | 0.394 | 0.166 | 0.21 | 0.23 | 0.198 | 0.203
13 | NCI-H2342 | 0.698 | 0.865 | 0.821 | 0.801 | 0.792 | 0.321 | 0.33 | 0.334 | 0.318 | 0.295
14 | EPLC-272H | 0.253 | 0.261 | 0.273 | 0.296 | 0.293 | 0.44 | 0.303 | 0.286 | 0.321 | 0.32
15 | NCI-H1915 | 0.289 | 0.305 | 0.323 | 0.301 | 0.291 | 0.308 | 0.306 | 0.309 | 0.295 | 0.261
16 | NCI-H596 | 0.764 | 0.771 | 0.794 | 0.887 | 0.722 | 0.515 | 0.49 | 0.576 | 0.506 | 0.474
17 | NCI-H322M | 0.535 | 0.507 | 0.469 | 0.503 | 0.383 | 0.268 | 0.227 | 0.227 | 0.262 | 0.236
18 | NCI-H2228 | 0.51 | 0.556 | 0.562 | 0.398 | 0.338 | 0.471 | 0.498 | 0.516 | 0.567 | 0.423
19 | NCI-H522 | 0.75 | 0.781 | 0.806 | 0.771 | 0.659 | 0.641 | 0.837 | 0.785 | 0.779 | 0.76
20 | NCI-H647 | 0.459 | 0.52 | 0.545 | 0.444 | 0.389 | 0.164 | 0.188 | 0.178 | 0.178 | 0.0946
21 | SK-MES-1 | 0.509 | 0.564 | 0.643 | 0.566 | 0.503 | 0.421 | 0.33 | 0.433 | 0.426 | 0.418
22 | NCI-H2170 | 0.866 | 1.01 | 1.03 | 0.868 | 0.986 | 0.527 | 0.427 | 0.562 | 0.545 | 0.558
23 | NCI-H2085 | 0.477 | 0.427 | 0.56 | 0.511 | 0.51 | 0.272 | 0.236 | 0.215 | 0.279 | 0.229
24 | SW 1573 | 0.538 | 0.683 | 0.57 | 0.572 | 0.445 | 0.439 | 0.668 | 0.466 | 0.462 | 0.574
25 | NCI-H727 | 0.386 | 0.369 | 0.407 | 0.397 | 0.29 | 0.462 | 0.337 | 0.316 | 0.384 | 0.447
26 | NCI-H441 | 0.409 | 0.52 | 0.451 | 0.343 | 0.305 | 0.577 | 0.83 | 0.542 | 0.672 | 0.607
27 | LOU-NH91 | 0.791 | 0.808 | 0.799 | 0.792 | 0.726 | 0.522 | – | 0.59 | 0.459 | 0.522
28 | NCI-H3122 | 0.246 | 0.261 | 0.237 | 0.191 | 0.235 | 0.761 | 0.833 | 0.923 | 0.785 | 0.991
